Source: US20220409617A1, “Drug Formulations and Methods of Treatment for Metabolic Disorders” (The Regents of the University of California, priority 2019, published 2022)

Columns and labels:
[1] = tested on: mouse embryonic fibroblasts (MEFs); assay: Ceramide-induced (C16:0 CER, C2-ceramide) mitochondrial fragmentation; format: cell-based
Description: (§1) 3T3-L1 cells were maintained in DMEM with 10% FBS and 1% penicillin-streptomycin until induced to differentiate. 3T3-L1 pre-adipocytes were differentiated as described in (M. P. Valley, et al., Anal. Biochem. 505: 43-50, 2016, the disclosure of which is incorporated herein by reference) with slight modifications. Briefly, pre-adipocytes were grown to confluence. After 2 d, cells were induced with maintenance media containing 500 μM IBMX (15879, Sigma-Aldrich, St. Louis, Mo.), 1 μM dexamethasone (D4902, Sigma-Aldrich), 5 μg/mL bovine insulin (10516, Sigma-Aldrich), and 5 μM troglitazone (50-115-0786, ApexBio). Media was changed every 2-3 d for 7 d. On day 7 post-induction, media was changed to maintenance media+5 μg/mL bovine insulin. On day 9 post-induction, media was changed to maintenance media. Mature adipocytes were used 12-14 d post-induction for all experiments. LSL-KrasG12D mouse embryonic fibroblasts (MEFs) with and without Cre-mediated deletion of the STOP cassette were obtained from David Tuveson (Cold Spring Harbor Laboratory, Cold Spring Harbor N.Y., USA) in 2000. p53^flox/flox MEFs were derived in house (2015) from C57BL/6 mice using standard techniques and immortalized by transient expression of Cre recombinase and deletion of p53. MEFs were cultured and maintained in DMEM with 10% FBS and 1% penicillin-streptomycin. A549 cells were cultured in DMEM with 10% FBS, 1% penicillin-streptomycin and 1% sodium pyruvate. Stock solution of palmitic acid (ACROS Organics, cat # AC129702500) was prepared at 100 mM in ethanol. Palmitate (250 μM) was conjugated to 1% (w/v) fatty-acid free bovine serum albumin (Sigma, A8806) in DMEM at 37° C. for 20 min. For all immunofluorescence assays, 8,000 MEFs were seeded into 8-chamber slides (Cellvis, cat # C8-1.5H-N) 12-16 h before treatment. Cells were pre-treated with sphingolipid-like compound 893 (5 μM in water), myriocin (10 μM in methanol), fumonisin-B1 (30 μM in DMSO), or celastrol (500 nM in DMSO) for 3 h followed by a 3 h treatment with BSA-conjugated palmitate mixture or BSA alone. Where cells were treated with C2-ceramide (50 μM in DMSO) or C16:0 ceramide (100 μM in ethanol) for 3 h, cells were pre-treated with sphingolipid-like compound 893 for 1-3 h as indicated, mdivi-1 (50 μM in DMSO) for 1 h or 24 h, M1 (5 μM in DMSO) for 24 h, mdivi-1 and M1 together for 24 h, leflunomide (50 μM in methanol) for 1 h or 24 h, or with P110 (1 μM in water) for 1 h or 12 h. LSL or KRAS^G12D MEFs were treated with sphingolipid-like compound 893 (5 μM) for 6 h prior to fixation.
MEFs were washed twice with PBS and fixed with 4% paraformaldehyde for 10 min at RT. Cells were permeabilized with 0.3% Triton X-100 in blocking buffer containing 10% fetal bovine serum for 20 min at 37° C. followed by overnight incubation with mouse anti-citrate synthase (sc-390693, Santa Cruz Biotechnology; dilution, 1:200) or rabbit-anti-DRP1 at 1:100 (#8570, Cell Signaling Technology) at 4° C. Cells were then washed twice with PBS and incubated with AlexaFluor 488 goat anti-mouse (A28175, Invitrogen) or AlexaFluor 594 donkey anti-rabbit (A32754, Invitrogen) secondary antibodies at RT followed by 5 min incubation with 1 μg/ml DAPI and 2 washes in PBS. For NADH autofluorescence studies, mice were gavaged with vehicle or 120 mg/kg sphingolipid-like compound 893 at ZT8.5 (4-10.5 h before sacrifice between ZT12.5 and ZT18). Post sacrifice, livers were excised, washed 3× with PBS, placed in DMEM supplemented with 10% FBS and 1% penicillin-streptomycin, and immediately imaged. NADH/NADPH autofluorescence was detected with 740 nm excitation and 450±50 nm detectors using a Mai Tai two-photon laser. Fluorescence microscopy was performed on a Zeiss LSM 780 confocal using a 63× oil objective with a […] numerical aperture (NA) or using a Nikon TE2000-S inverted epifluorescence microscope with a 100× oil objective (1.3 NA) and a Photometrics CoolSNAP ES2 monochrome CCD camera. […]

[2] = mouse, in vivo; cited from earlier work
A549 lung cancer cells = assay: KRAS-mediated mitochondrial fission in A549 cells; format: cell-based, human; details: A549, oncogenic KRAS; 893 5 μM 1 h, leflunomide 50 μM 24 h
Description: as §1, with “Where cells were treated with C2-ceramide (50 μM in DMSO) or C16:0 ceramide (100 μM in ethanol) for 3 h, cells were pre-treated with sphingolipid-like compound 893 for 1-3 h as indicated, mdivi-1 (50 μM in DMSO) for 1 h or 24 h, M1 (5 μM in DMSO) for 24 h, mdivi-1 and M1 together for 24 h, leflunomide (50 μM in methanol) for 1 h or 24 h, or with P110 (1 μM in water) for 1 h or 12 h. LSL or KRAS^G12D MEFs were treated with sphingolipid-like compound 893 (5 μM) for 6 h prior to fixation.” left out
MEFs were washed twice with PBS and fixed with 4% paraformaldehyde for 10 min at RT. […] NADH/NADPH autofluorescence was detected with 740 nm excitation and 450±50 nm detectors using a Mai Tai two-photon laser. Fluorescence microscopy was performed on a Zeiss LSM 780 confocal using a 63× oil objective with a […] numerical aperture (NA) or using a Nikon TE2000-S inverted epifluorescence microscope with a 100× oil objective (1.3 NA) and a Photometrics CoolSNAP ES2 monochrome CCD camera. […]

## Cc1oncc1C(=O)Nc1ccc(C(F)(F)F)cc1 [leflunomide]
[1]; MEFs, C16:0 CER 100 μM or C2-ceramide 50 μM 3 h, 893 5 μM, mdivi-1 50 μM, M1 5 μM, leflunomide 50 μM, P110 1 μM
  Protection from ceramide-induced mitochondrial fragmentation: blocked C16:0 ceramide-induced mitochondrial fragmentation after a 24 h, but not a 1 h, pre-incubation
[1]; blocking ceramide-induced mitochondrial fragmentation in vitro
  Potency relative to compound 893 (less potent): 10 fold
[2]
  Food intake and body weight in obese mice: failed to reduce food intake or body weight in obese mice
A549 lung cancer cells
  Reversal of mitochondrial fragmentation / tubularity in A549 cells: did not reverse mitochondrial fragmentation in A549 lung cancer cells
